Measured values as given in US11148998B2, “Dimethyl-nonatetraenyl-trimethyl-cyclohexyl compounds and uses thereof” (The Regents of the University of Michigan, priority 2017, dated 2021).
“Also recorded” adds a separate entry of the source.

What was measured:
[1] = system: human dermal fibroblasts; assay: Retinoid-induced fibroblast survival under low-calcium conditions; format: cell-based; settings: KBM 0.1 mM calcium, three days, 0.1 to 5 μg/mL
Description: Human dermal fibroblasts are isolated from skin biopsies as described previously and grown in monolayer culture using DMEM supplemented with 10% fetal bovine serum as culture medium (see, e.g., Varani J, et al., J Clin Invest. 1994; 94; Varani J, et al., J. Invest. Dermatol. 94:717-723, 1990). Growth is at 37° C. in a humidified atmosphere containing 5% CO2 and 95% air. For experimental studies, cells are plated at 5×10^4 cells per well in wells of a 24-well culture dish in the same culture medium. One day later, cells are washed and the DMEM culture medium is replaced with Keratinocyte Basal Medium (KBM).
In this assay, low-passage human dermal fibroblasts are grown for three days in Keratinocyte Basal Medium (KBM) at a calcium concentration (0.1 mM) that is too low to support survival. […] How retinoids act to prevent fibroblast lysis is not fully understood, but part of the mechanism involves modulation of calcium transit across the cell membrane in the presence of the active retinoids (see, e.g., Varani J, et al., Am. J. Path. 136:1275-1281, 1990; Varani K, et al., Am J. Pathol. 147:718-729, 1995; Varani J, et al., Amer. J. Pathol. 148: 1307-1312, 1996).

[2] = system: human dermal fibroblasts; assay: Generation of pro-inflammatory cytokines by fibroblasts (multiplex ELISA); format: cell-based; settings: KBM 1.5 mM calcium, two days, culture fluids
Description: Fibroblasts were grown in KBM supplemented with 1.5 mM calcium (i.e., as in the fibroblast cytotoxicity assay) for two days. Culture fluids obtained at the end of the incubation period were assessed for several pro-inflammatory cytokines using a multiplex (ELISA-type) assay. Values shown are means and ranges based on duplicate samples in a single experiment. The experiment was repeated two times with similar results.
It is believed that the pro-inflammatory cytokines are “drivers” of the retinoid-induced skin irritation response. […] In this experiment, fibroblasts were cultured for two days in KBM supplemented with 1.5 mM calcium (i.e., as in the cytotoxicity assay). Culture fluids were collected after two days of incubation and subjected to a multiplex enzyme-linked immunosorbant assay (ELISA) for the following cytokines: TNF-α, IL-1β, IL-6, IL-8, MCP-1 and CXCL-1.

[3] = system: rhino mouse skin; assay: Rhino mouse topical treatment: skin histology (horn-filled utriculi, epidermal thickness, inflammation); format: in vivo; settings: topical, concentration not given; for inflammatory response / inflammatory cell infiltrate in histological sections (in words): 21 days
Text: FIGS. 12A-C: Efficacy of retinoids at normalizing structure of rhino mouse skin after topical treatment for 21 days.
FIGS. 13A-C: Dose related effect of Example 2 on rhino mouse skin.
The rhinomouse model is an industry-standard pre-clinical model for evaluation of retinoids for anti-acne activity. The mice can be treated topically over a course of days with the desired compound (either formulated or in liquid solvent). During the course of treatment, the animals can be evaluated grossly for skin irritation. At the end of the treatment phase, the animals are euthanized. Skin from treated sites can be evaluated for efficacy—reduction in the number of horn-filled utriculi—and for histological evidence of inflammation.
As a control, Tretinoin-0.1% was used. […] This is a commonly-prescribed anti-acne medicine.
One day after the last treatment, animals were euthanized. The animals were injected with 7 ml 10% buffered formalin after euthanasia. 15 minutes later the treated area on the back of the mouse was removed and cut into 8 pieces. Every other piece was taken, so four pieces of skin were mounted in one cassette and fixed for histology. An extra piece of skin from a non-treated area was also evaluated.
Hematoxylin and eosin stained sections were evaluated microscopically for epidermal thickness with measurements made in the inter-follicular regions at 4 representative sites per tissue strip.
The number of horn-filled utriculi was determined by direct counting in the entire section of skin. Each of the four sections per biopsy was used for determining the number of utriculi. Section lengths were measured as a way to normalize findings. Typically, the section of skin varied from 16-20 mm.
Slides were examined microscopically and inflammation was scored on a 0 to 4+ basis. A score of zero indicated no inflammation while increasing collection of inflammatory cells was identified with increasing score. Slides were also evaluated to determine if inflammation was confined to the dermis or whether there was epidermal inflammation. Dermal inflammation was assessed to determine if inflammatory cells were scattered throughout the dermis or whether small abscesses were also present. Finally, the inflammatory lesions were evaluated to determine whether they consisted of primarily mononuclear cells, granulocytic cells or both. A similar scale has been used previously in the assessment of skin irritation.
At the end of the in-life portion of the study, mice were euthanized by CO2 overdose. Hematoxylin and eosin-stained histological sections from each mouse in the control, ATRA-treated and Compound 2-treated groups were evaluated with regard to the number of horn-filled utriculi, epidermal thickness, and inflammation. Briefly, the epidermis of control mice consisted of a thin epidermis with large numbers of horn-filled utriculi (98+10 per 20 mm of epidermal linear length). […] Both the ATRA-treated mouse (top right panel) the Compound 2 treated skin (bottom panel) show both much thickened […] and disappearance of utriculi. […] There were large numbers of inflammatory cells in the dermis. Microabscesses could be seen in places, and migration of inflammatory cells into the epidermis was also evident. The infiltrate consisted of both mononuclear cells and granulocytes. […] The three other experimental retinoids were also examined along with Compound 2. […] In FIG. 13 it can be seen that during the dosing period 0.1% of Compound 2 led to skin thickening, but incomplete resolution of the utricali, whereas at 0.3% the utricali were more fully resolved.

[4] = system: serum pro-inflammatory cytokines; settings: mouse, in vivo
Text: Each of the 4 experimental retinoids was made up in DMSO as 0.1% and 0.3% solutions. The material was applied to the treatment area (2 cm^2 area) on a dot marked area on the inter-scapular back) once daily for 7 consecutive days or for 21 consecutive days. The test agent was gently rubbed into the test site after application. As a control, Tretinoin-0.1% was used. […] This is a commonly-prescribed anti-acne medicine. A set amount of the test article, DMSO, DMSO plus test drug, or Tretinoin cream (35 mg) was delivered using a Gilson MICROMAN fully adjustable positive placement pipette.
Serum was obtained from all mice at the end of the study and evaluated for levels of pro-inflammatory cytokines. For this, the same multiplex ELISA used with human samples was employed except that mouse-recognizing antibodies replaced antibodies used to detect the human counterparts.

[5] = system: human skin in organ culture; settings: cited from earlier work
[6] = system: skin wounds; assay: Wound healing in rats with steroid-induced atrophic skin; format: in vivo, rat
Text: FIGS. 15A-C: Results from a study in rats in which the skin was made atrophic by topical steroid treatment and then wounded. […] In the control animal (15CL), there was incomplete re-epithelialization over the wound and little collagen deposition in the dermis. […] The lack of irritation/inflammation is expected in the control animal but is unusual for a retinoid-treated animal. The data shown here was consistent over n=5 animals per group.
Given the lack of irritation associated with MDI 301, experiments were conducted reasoning that this retinoid might work in the acute wound setting. Essentially, a group of rats were treated with a potent steroid to induce skin atrophy followed by a wounding of the skin. Following this, rats were treated with vehicle alone or with MDI 301. […] It should be noted that in this study ATRA cannot be used, as its irritant properties exacerbate the original injury.

[7] = system: systemic cytokine release; settings: intraperitoneal dosing; cited from earlier work

With `CC1=C(/C=C/C(C)=C\C=C\C(C)=C\C(=O)N(C)CC(=O)C2(C)CC2)C(C)(C)CCC1` [Example 4, (2E,4E,6Z,8E)-N,3,7-trimethyl—N-(2-(1-methylcyclopropyl)-2-oxoethyl)-9-(2,6,6-trimethylcyclohex-1-en-1-yl)nona-2,4,6,8-tetraenamide] the “protection of fibroblasts from lysis (percentage of initially present cells still viable)” value [1] was “capable of protecting fibroblasts from lysis under low-calcium conditions”, the “induction of pro-inflammatory cytokines (TNF-α, IL-1β, IL-6, IL-8, MCP-1, CXCL-1)” value [2] was “much lower levels of the various cytokines than did ATRA; also recorded: comparable to Compound 1” and the “inflammatory response / inflammatory cell infiltrate in histological sections (in words)” value [3] was “did not produce an inflammatory response”. For the same molecule, the “number of utriculi compared to control (in words)” value [3] was “reduced the number of utriculi as compared to control”, the IL-1β serum level [4] was “low” and the TNF-α serum level [4] was “low”.
For `CC1=C(/C=C/C(C)=C\C=C\C(C)=C\C(=O)OCC(=O)C(C)(C)C)C(C)(C)CCC1` [MDI 301], the “effect on collagen-degrading enzyme MMP-1 (collagenase 1)” value ([5]; human skin organ culture model) is listed as “inhibited the major collagen-degrading enzyme (MMP-1, collagenase 1)”, the “procollagen I production” value ([5]; human skin organ culture model) is listed as “induced procollagen I production” and the “up-regulation of the pro-inflammatory cytokines that underlie retinoid-induced skin irritation” value ([5]; past studies) is listed as “did not up-regulate the pro-inflammatory cytokines”. For the same molecule, the “histology of the wound site” value ([6]; 1% cream, after 13 days) was “confluent layer of epithelial keratinocytes over the wound site and a pronounced zone of fibroblast proliferation with new collagen formation under the epithelial layer”, the “skin irritation and inflammation at the wound site” value ([6]; 1% cream, after 13 days) was “lack of skin irritation (15BR) and lack of inflammation (15CR)” and the “healing of skin wounds compared to control rats” value ([6]; 1.0% cream, ~100 mgs daily to wound periphery, 13 days) was “healed more rapidly”. For the same molecule, the systemic cytokine release [7] was “did not elicit systemic cytokine release”.
In the case of `CC1=C(/C=C/C(C)=C\C=C\C(C)=C\C(=O)N2CCCC(=O)C2)C(C)(C)CCC1` [Example 3, 1-((2E,4E 6Z,8E)-3,7-dimethyl-9-(2,6,6-trimethylcyclohex-1-en-1-yl)nona-2,4,6,8-tetranonyl)piperidin-3-one], the “protection of fibroblasts from lysis (percentage of initially present cells still viable)” value [1] is reported as “capable of protecting fibroblasts from lysis under low-calcium conditions”, the “induction of pro-inflammatory cytokines (TNF-α, IL-1β, IL-6, IL-8, MCP-1, CXCL-1)” value [2] is reported as “much lower levels of the various cytokines than did ATRA” and the “inflammatory response / inflammatory cell infiltrate in histological sections (in words)” value [3] is reported as “did not produce an inflammatory response”. For the same molecule, the “number of utriculi compared to control (in words)” value [3] was “reduced the number of utriculi as compared to control”, the IL-1β serum level [4] was “low” and the TNF-α serum level [4] was “low”.
